According to US20040171089A1, “High-throughput screening assay for identifying substances capable of modulating cell survival and/or proliferation” (priority 2001, published 2004):

What was measured:
mammary epithelial cells = assay: MTS cell viability/proliferation assay, mammary epithelial cells; type: cell-based, human; settings: 1-10 μM
Description: Human mammary epithelial cells (catalogue number CC-2551; stain positive for cytokeratins 14, 18 and 19)
(§1) This was carried out using an MTS assay (reagents from Promega Corporation, Madison Wis., USA) which is a modification of the MTT assay (as described in Jacobson et al, 1994 EMBO J Vol 13 pp1899-1910). The assay depends on conversion of the MTS tetrazolium compound to a coloured formazan product in metabolically active cells; it is therefore an assay of viable cell number. A decline in values implies cell killing as long as cell disappearance by apoptosis in untreated cell populations is absent or negligible (as with most healthy primary cell populations).
Cells were seeded in the range 1.5×10^5-1.8×10^5 cells per ml of culture medium in 96 well microtitre plates and allowed to attach in a humidifed atmosphere of 5% CO2 in air at 37 deg C. Drugs were added 18-24 hours later and cell viability/proliferation measured at time intervals up to 48-72 hours post-drug addition when the experiment was terminated. […]
(§2) Cell viability was measured as follows: 20 μl of MTS solution (Promega) was added to wells and incubated at 37 deg C. for 3 hours during which time a coloured formazan product is generated in viable cells. […] Viable cell number was then measured by reading absorbance at 490 nm in a Dynex microtitre plate reader. […]

[1] = test system: human prostate epithelial cells; assay: Fura-2 calcium imaging, prostate epithelial cells; type: cell-based
Description: Human prostate epithelial cells (catalogue number CC-2555; stain positive for cytokeratin 8,13.)
(§3) For calcium imaging experiments cells were plated onto poly-L-lysine coated coverslips (13 mm). Single cell imaging was performed utilizing a MiraCal Imaging facility (Life Science Resources, Cambridge, U.K.) with a Nikon Diaphot-TMD inverted epifluorescence microscope equipped with a ×40 oil immersion objective and Sutter filter wheel. The imager was equipped with a Lambert intensifier 1187 (Life Sciences Resources) providing a ×30 enhancement of the fluorescent signal, thus limiting phototoxicity.
Fura-2 acetoxymethyl ester (fura-2 AM) incubations with the cells were performed at 37° C. in a medium containing (in mM): 120 NaCl, 3.5 KCl, 0.4 KH2PO4, 5 NaHCO3, 1.2 Na2SO4, 15 glucose, 1.2 MgCl2, 1 CaCl2, and 20 TES [N-tris(hydroxymethyl) methyl-2-aminoethane sulphonic acid] pH adjusted to 7.4 with NaOH. Typically cells were incubated in 3 μM fura-2 AM for 25 min., which permitted sufficient accumulation of free fura-2 in the cell cytoplasm. Cells were then illuminated alternately at 340 and 380 nm with the emitted 505 nm light being detected by a photomultiplier. […] Changes of intracellular calcium were quantified as the percentage increase of the fluorescent ratio (determined at ˜505 nm) obtained by exciting the test cells alternatively at 340 nm (optimal for calcium bound dye) and 380 nm.

MDA MB 468 cells = assay: MTS cell viability/proliferation assay, MDA MB 468 cells; type: cell-based, human; settings: 15 minute exposure then drug-free medium; at 48 hours; MTS
Description: as §1
Cells were seeded in the range 1.5×10^5-1.8×10^5 cells per ml of culture medium in 96 well microtitre plates and allowed to attach in a humidifed atmosphere of 5% CO2 in air at 37 deg C. Drugs were added 18-24 hours later and cell viability/proliferation measured at time intervals up to 48-72 hours post-drug addition when the experiment was terminated. Mean (±SE) values at each time point were obtained from wells in triplicate.
as §2

[2] = test system: human primary microvascular endothelial cells; assay: Fura-2 calcium imaging, microvascular endothelial cells; type: cell-based
Description: Human adult dermal microvascular endothelial cells (catalogue number CC-2543; cells had been characterised by tests for cell type markers: positive for acetylated LDL uptake, positive for factor VIII related antigen, negative for alpha smooth muscle actin)
as §3
Fura-2 acetoxymethyl ester (fura-2 AM) incubations with the cells were performed at 37° C. in a medium containing (in mM): 120 NaCl, 3.5 KCl, 0.4 KH2PO4, 5 NaHCO3, 1.2 Na2SO4, 15 glucose, 1.2 MgCl2, 1 CaCl2, and 20 TES [N-tris(hydroxymethyl) methyl-2-aminoethane sulphonic acid] pH adjusted to 7.4 with NaOH. Typically cells were incubated in 3 μM fura-2 AM for 25 min., which permitted sufficient accumulation of free fura-2 in the cell cytoplasm. Cells were then illuminated alternately at 340 and 380 nm with the emitted 505 nm light being detected by a photomultiplier. Free fura emits maximally when excited at 380 nm, whilst the calcium bound fura has a maximal emission when excited at 340 nm. Thus the ratio of emission when alternately excited at 340/380 nm is a measure of the calcium concentration in equilibrium with the chelator. Changes of intracellular calcium were quantified as the percentage increase of the fluorescent ratio (determined at ˜505 nm) obtained by exciting the test cells alternatively at 340 nm (optimal for calcium bound dye) and 380 nm.

phospholipase C = assay: GFP-PH PLCdelta 1 relocalisation (PLC activation) in MDA MB 468 cells; type: cell-based, human
Description: The inventors introduced a recombinant plasmid vector encoding a hybrid protein comprised of the pleckstrin homology (PH) domain of phospholipase C (PLC) delta 1 fused green fluorescent protein (GFP) (GFP-PH PLCdelta 1) into MDA MB 468 mammary carcinoma cells. A standard transfection method (Fugene-6—Roche) was used. […] Cells were maintained in DMEM with 10% fetal bovine serum at 37 deg C. in 5% CO2 before and during exposure to sigma ligands which were present at a range of concentrations. Effects on the GFP-PH PLCdelta 1 protein were studied in two ways: by time lapse microscopy (using a Leica inverted fluorescence microscope and a Hammamatsu Orca charge-coupled device camera, linked to an Improvision Open Lab image processing workstation). This enabled the time course of effects to be determined. […] Control cell populations received drug vehicle alone and were analysed at the same time points.
GFP-PH PLC delta 1—expressing MDA MB 468 cells were exposed to sigma antagonists in 1 mM and 0 mM (nominally calcium-free) buffer (as used for the calcium imaging experiments, described above) and monitored by time lapse imaging as above.

sigma-1 sites = sigma-1 sites (Homo sapiens, UniProt Q99720); settings: Whittemore et al 1997; read-out: inhibition constant for sigma-1 sites; cited from earlier work
[3] = 1-10 μM, microvascular endothelial cells

Sequence of sigma-1 sites (Q99720 whole entry): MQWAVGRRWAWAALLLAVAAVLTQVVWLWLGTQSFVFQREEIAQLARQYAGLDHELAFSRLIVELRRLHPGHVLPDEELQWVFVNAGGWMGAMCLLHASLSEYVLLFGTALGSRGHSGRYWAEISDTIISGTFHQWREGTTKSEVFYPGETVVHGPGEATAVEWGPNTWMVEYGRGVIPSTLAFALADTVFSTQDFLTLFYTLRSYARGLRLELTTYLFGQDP

Question: With N=C(Nc1ccc(I)cc1)NC1C2CC3CC(C2)CC1C3 (stereo not drawn) [IPAG, 1-(4-iodophenyl)-3-(2-adamantyl)guanidine] as the compound, how does the Cytotoxicity (mammary epithelial cells) read?
Answer: not cytotoxic

Question: And the “% increase of cytosolic calcium (peak 340/380 nm fura-2 ratio)” value ([1]; 1 μM)?
Answer: 10±5%

Question: And the “% increase of cytosolic calcium (peak 340/380 nm fura-2 ratio)” value ([1]; 10 μM)?
Answer: 25±5%

Question: And the “viable cell number less than control values” (MDA MB 468 cells)?
Answer: 20-30%

Question: What about the “% increase of cytosolic calcium (peak 340/380 nm fura-2 ratio)” value ([2]; 1 μM, microvascular endothelial cells) of the same compound?
Answer: 119±13%

Question: What about the “initial calcium rise above baseline, occurring within 1 minute” value ([2]; 10 μM, 1 mM, 0.1 mM and nominally calcium free medium) of the same compound?
Answer: > 100%

Question: What about the “% increase of cytosolic calcium (peak 340/380 nm fura-2 ratio)” value ([2]; 10 μM, microvascular endothelial cells) of the same compound?
Answer: 293±14%

Question: What about the “time to evident increase of cytosolic calcium after drug application” value [2, 3] of the same compound?
Answer: 5 to 10 s

Question: And the “time to peak effect on cytosolic calcium” value [2, 3]?
Answer: ≤ 3 min

Question: And the “relocalisation of GFP-PH PLC delta 1 from membrane to cytosol” value (phospholipase C; 100 μM, approximately 10 minutes, DMEM with 10% fetal bovine serum)?
Answer: pronounced relocalisation

Question: What about the “localisation of GFP-PH PLC delta 1” value (phospholipase C; nominally calcium-free buffer (0 mM calcium)) of the same compound?
Answer: remained membrane-localised

Question: What about the Ki (sigma-1 sites) of the same compound?
Answer: ~2.8 nM
